From patent US20230086702A1, “SUBSTITUTED 2-AMINO-PYRAZOLYL-[1,2,4]TRIAZOLO[1,5A]PYRIDINE DERIVATIVES AND USE THEREOF” (The Johns Hopkins University, priority 2019, published 2023) come the findings set out here.

Each structure is given as a SMILES string. pIC50: −log10 of the molar value.

In one experiment the target is T1, DLK (Homo sapiens, UniProt Q12852).
T1 construct: 10 nM DLK, catalytic domain, Carna Biosiences; purchased Carna Biosciences ('Carna Biosiences' [sic])
T1 sequence (Q12852 125-366 limits assumed): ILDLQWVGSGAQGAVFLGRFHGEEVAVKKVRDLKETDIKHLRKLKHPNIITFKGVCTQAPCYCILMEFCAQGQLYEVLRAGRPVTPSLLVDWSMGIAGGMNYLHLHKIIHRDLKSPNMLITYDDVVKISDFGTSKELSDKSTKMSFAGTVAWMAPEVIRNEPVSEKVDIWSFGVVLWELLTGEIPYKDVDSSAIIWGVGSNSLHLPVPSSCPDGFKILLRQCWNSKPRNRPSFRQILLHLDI
The experiment can be described thus: DLK biochemical assay (TR-FRET, MKK7 phosphorylation). Summed up:
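TR-FRET read-out (665/Eu ratio) of MKK7 T275/S277 phosphorylation, with inhibition lowering the signal. Final conditions: 10 nM DLK catalytic domain, 15 nM MKK7, 60 μM ATP, 90 min at RT. Detection incubation 16 h at 37° C in 1536-well or 4° C in 384-well format.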
For orientation: Time-resolved FRET reads energy transfer from a long-lived donor to a nearby acceptor.

Another experiment has as its target T2, LZK (Homo sapiens, UniProt O43283).
T2 construct: 10 nM LZK, catalytic domain, Carna Biosiences in assay buffer; purchased Carna Biosciences ('Carna Biosiences' [sic])
T2 sequence (O43283 168-409 limits assumed): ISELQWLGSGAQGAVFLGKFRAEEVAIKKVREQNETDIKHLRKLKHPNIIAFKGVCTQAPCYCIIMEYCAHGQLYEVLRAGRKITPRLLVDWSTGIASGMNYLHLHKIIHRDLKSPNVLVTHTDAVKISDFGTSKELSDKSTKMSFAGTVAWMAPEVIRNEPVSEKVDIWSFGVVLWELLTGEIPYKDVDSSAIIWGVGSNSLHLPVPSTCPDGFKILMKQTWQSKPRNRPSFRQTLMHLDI
The experiment is described as follows: LZK biochemical assay (TR-FRET, MKK7 phosphorylation). Summed up:
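Read-out is HTRF: Eu-labelled anti-phospho-MKK7 (T275/S277) and XL665 anti-His, incubated 16 h at 32 °C, with a drop in signal marking inhibition. Reaction beforehand: 10 nM LZK kinase domain, 15 nM His-MKK7, 15 µM ATP (final) for 90 min at room temperature, pH 7.5.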

Regarding `Nc1nc2cc(-c3cnn(C(c4ccc(C(F)(F)F)nc4)C4CCOCC4)c3)cc(-c3cnn(CC(F)(F)F)c3)n2n1` (single isomer, unassigned) [II-151, 7-(1-{Tetrahydro-2H-pyran-4-yl[6-(trifluoromethyl)pyridin-3-yl]methyl}-1H-pyrazol-4-yl)-5-[1-(2,2,2-trifluoroethyl)-1H-pyrazol-4-yl][1,2,4]triazolo[1,5-a]pyridin-2-amine], the negative-log IC50 (pIC50) against DLK and on LZK was 7.96 throughout.
As to `Nc1nc2c(-c3ccc(=O)n(C(F)F)c3)cc(-c3cnn(C(c4ccc(C(F)(F)F)nc4)C4CCOCC4)c3)cn2n1` (single isomer, unassigned) [II-154, 5-[2-Amino-6-(1-{tetrahydro-2H-pyran-4-yl[6-(trifluoromethyl)pyridin-3-yl]methyl}-1H-pyrazol-4-yl)[1,2,4]triazolo[1,5-a]pyridin-8-yl]-1-(difluoromethyl)pyridin-2(1H)-one], the pIC50 (usually the IC50 on a negative log10 scale, so that one unit is a factor of ten) at DLK was 8.21; against LZK it was 7.82.
In the same order, the values of `Nc1nc2c(-c3ccc(=O)n(C(F)F)c3)cc(-c3cnn(C(c4ccc(C(F)(F)F)nc4)C4CCOCC4)c3)cn2n1` (single isomer, unassigned) [II-155, 5-[2-Amino-6-(1-{tetrahydro-2H-pyran-4-yl[6-(trifluoromethyl)pyridin-3-yl]methyl}-1H-pyrazol-4-yl)[1,2,4]triazolo[1,5-a]pyridin-8-yl]-1-(difluoromethyl)pyridin-2(1H)-one] are 9.00 and 8.51.
`Nc1nc2c(-c3ccc(=O)n(CC(F)F)c3)cc(-c3cnn(C(c4ccc(C(F)(F)F)nc4)C4CCOCC4)c3)cn2n1` (single isomer, unassigned) [II-157, 5-[2-Amino-6-(1-{tetrahydro-2H-pyran-4-yl[6-(trifluoromethyl)pyridin-3-yl]methyl}-1H-pyrazol-4-yl)[1,2,4]triazolo[1,5-a]pyridin-8-yl]-1-(2,2-difluoroethyl)pyridin-2(1H)-one]: the pIC50 at DLK is 8.23; at LZK, 7.92.
For `Nc1nc2c(-c3ccc(=O)n(CC(F)F)c3)cc(-c3cnn(C(c4ccc(C(F)(F)F)nc4)C4CCOCC4)c3)cn2n1` (single isomer, unassigned) [II-158, 5-[2-Amino-6-(1-{tetrahydro-2H-pyran-4-yl[6-(trifluoromethyl)pyridin-3-yl]methyl}-1H-pyrazol-4-yl)[1,2,4]triazolo[1,5-a]pyridin-8-yl]-1-(2,2-difluoroethyl)pyridin-2(1H)-one], the negative-log IC50 (pIC50) at DLK is 9.40; against LZK, 8.92.
For `Nc1nc2c(-c3ccc(=O)n(CC(F)(F)F)c3)cc(-c3cnn(C(c4ccc(C(F)(F)F)nc4)C4CCOCC4)c3)cn2n1` (single isomer, unassigned) [II-161, 5-[2-Amino-6-(1-{tetrahydro-2H-pyran-4-yl[6-(trifluoromethyl)pyridin-3-yl]methyl}-1H-pyrazol-4-yl)[1,2,4]triazolo[1,5-a]pyridin-8-yl]-1-(2,2,2-trifluoroethyl)pyridin-2(1H)-one], in that order: 8.07 and 7.92.
For `CCC(c1ccc(OC(F)(F)F)nc1)n1cc(-c2cc(-c3ccc(=O)n(CC(F)(F)F)c3)c3nc(N)nn3c2)cn1` (single isomer, unassigned) [II-164, 5-[2-Amino-6-(1-{1-[6-(trifluoromethoxy)pyridin-3-yl]propyl}-1H-pyrazol-4-yl)[1,2,4]triazolo[1,5-a]pyridin-8-yl]-1-(2,2,2-trifluoroethyl)pyridin-2(1H)-one], in that order: 8.46 and 7.77.
In the same order, the values of `CCC(c1ccc(OC(F)(F)F)nc1)n1cc(-c2cc(-c3ccc(=O)n(CC(F)(F)F)c3)c3nc(N)nn3c2)cn1` (single isomer, unassigned) [II-165, 5-[2-Amino-6-(1-{1-[6-(trifluoromethoxy)pyridin-3-yl]propyl}-1H-pyrazol-4-yl)[1,2,4]triazolo[1,5-a]pyridin-8-yl]-1-(2,2,2-trifluoroethyl)pyridin-2(1H)-one] are 7.59 and 7.24.
Turning to `Nc1nc2c(-c3cn(CC(F)(F)F)c(=O)cn3)cc(-c3cnn(C(c4ccc(C(F)(F)F)nc4)C4CCOCC4)c3)cn2n1` (single isomer, unassigned) [II-167, 5-[2-Amino-6-(1-{tetrahydro-2H-pyran-4-yl[6-(trifluoromethyl)pyridin-3-yl]methyl}-1H-pyrazol-4-yl)[1,2,4]triazolo[1,5-a]pyridin-8-yl]-1-(2,2,2-trifluoroethyl)pyrazin-2(1H)-one], the values for the negative logarithm of the IC50 (pIC50) on DLK and against LZK were 8.89 and 8.00, respectively.
In the same order, the values of `Nc1nc2c(-c3cn(CC(F)(F)F)c(=O)cn3)cc(-c3cnn(C(c4ccc(C(F)(F)F)nc4)C4CCOCC4)c3)cn2n1` (single isomer, unassigned) [II-168, 5-[2-Amino-6-(1-{tetrahydro-2H-pyran-4-yl[6-(trifluoromethyl)pyridin-3-yl]methyl}-1H-pyrazol-4-yl)[1,2,4]triazolo[1,5-a]pyridin-8-yl]-1-(2,2,2-trifluoroethyl)pyrazin-2(1H)-one] are 7.77 and 7.11.
For `CCC(c1ccc(C(F)(F)F)nc1)n1cc(-c2cc(-c3ccn(C)c(=O)c3)c3nc(N)nn3c2)cn1` (single isomer, unassigned) [II-170, 4-[2-Amino-6-(1-{1-[6-(trifluoromethyl)pyridin-3-yl]propyl}-1H-pyrazol-4-yl)[1,2,4]triazolo[1,5-a]pyridin-8-yl]-1-methylpyridin-2(1H)-one], in that order: 7.14 and 6.66.
In the same order, the values of `CCC(c1ccc(C(F)(F)F)nc1)n1cc(-c2cc(-c3ccn(C)c(=O)c3)c3nc(N)nn3c2)cn1` (single isomer, unassigned) [II-171, 4-[2-Amino-6-(1-{1-[6-(trifluoromethyl)pyridin-3-yl]propyl}-1H-pyrazol-4-yl)[1,2,4]triazolo[1,5-a]pyridin-8-yl]-1-methylpyridin-2(1H)-one] are 8.03 and 7.39.
For `Nc1nc2c(-c3ccn(CC(F)F)c(=O)c3)cc(-c3cnn(C(c4ccc(C(F)(F)F)nc4)C4CCOCC4)c3)cn2n1` (single isomer, unassigned) [II-173, 4-[2-Amino-6-(1-{tetrahydro-2H-pyran-4-yl[6-(trifluoromethyl)pyridin-3-yl]methyl}-1H-pyrazol-4-yl)[1,2,4]triazolo[1,5-a]pyridin-8-yl]-1-(2,2-difluoroethyl)pyridin-2(1H)-one], the pIC50 at DLK was 7.96; against LZK it was 7.60.
For `Nc1nc2c(-c3ccn(CC(F)F)c(=O)c3)cc(-c3cnn(C(c4ccc(C(F)(F)F)nc4)C4CCOCC4)c3)cn2n1` (single isomer, unassigned) [II-174, 4-[2-Amino-6-(1-{tetrahydro-2H-pyran-4-yl[6-(trifluoromethyl)pyridin-3-yl]methyl}-1H-pyrazol-4-yl)[1,2,4]triazolo[1,5-a]pyridin-8-yl]-1-(2,2-difluoroethyl)pyridin-2(1H)-one], in that order: 9.00 and 8.37.
As to `Nc1nc2c(-c3ccn(CC(F)(F)F)c(=O)c3)cc(-c3cnn(C(c4ccc(C(F)(F)F)nc4)C4CCOCC4)c3)cn2n1` (single isomer, unassigned) [II-176, 4-[2-Amino-6-(1-{tetrahydro-2H-pyran-4-yl[6-(trifluoromethyl)pyridin-3-yl]methyl}-1H-pyrazol-4-yl)[1,2,4]triazolo[1,5-a]pyridin-8-yl]-1-(2,2,2-trifluoroethyl)pyridin-2(1H)-one], the negative-log IC50 (pIC50) against DLK is 8.80; against LZK it was 8.25.
For `Nc1nc2c(-c3ccn(CC(F)(F)F)c(=O)c3)cc(-c3cnn(C(c4ccc(C(F)(F)F)nc4)C4CCOCC4)c3)cn2n1` (single isomer, unassigned) [II-177, 4-[2-Amino-6-(1-{tetrahydro-2H-pyran-4-yl[6-(trifluoromethyl)pyridin-3-yl]methyl}-1H-pyrazol-4-yl)[1,2,4]triazolo[1,5-a]pyridin-8-yl]-1-(2,2,2-trifluoroethyl)pyridin-2(1H)-one], in that order: 8.00 and 7.48.
For `CCC(c1ccc(C(F)(F)F)nc1)n1cc(-c2cc(-c3ccc(=O)n(C(F)F)c3)n3nc(N)nc3c2)cn1` (single isomer, unassigned) [II-180, 5-[2-Amino-7-(1-{1-[6-(trifluoromethyl)pyridin-3-yl]propyl}-1H-pyrazol-4-yl)[1,2,4]triazolo[1,5-a]pyridin-5-yl]-1-(difluoromethyl)pyridin-2(1H)-one], in that order: 7.47 and 7.10.
